According to patent US8178658B2 (Dow AgroSciences, LLC, priority 2008, dated 2012):

Legend:
[1] = tested on: beet armyworm (BAW; Spodoptera exigua: Lepidoptera); experiment: 96-well microtiter plate-based high throughput (HTS) diet bioassay on beet armyworm (BAW HTS); assay type: in vivo; conditions: for BAW HTS: BAW eggs, 12 μg test compound per well, mortality at 6 d post-treatment, mortality class; for pest or weed control at 12 µg/well, 12 µg/well: Spodoptera exigua, 144 h, read-out: BAW HTS
Procedure, shortened: (§1)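 HTS: eggs on diet topped with 12 μg cpd/well; dark, 29° C; mortality day 6; mean of 6 reps. Tray: 3–5 L2 larvae/well; diet dosed 50 μg/cm^2; 25° C, 14:10 L:D; 6 d; mean of 8 wells. Scored as ≥50% mortality or not.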

[2] = tested on: beet armyworm (BAW; Spodoptera exigua: Lepidoptera); experiment: 128-well diet tray assay on beet armyworm (BAW 50); assay type: in vivo; conditions: for BAW 50 ug/cm2: 128-well diet tray assay, 50 μg/cm^2 of test compound on diet, second instar BAW larvae, mortality class; for pest or weed control at 50 µg/cm2, 50 µg/cm2: Spodoptera exigua, 144 h, read-out: BAW 50 ug/cm2
Procedure, shortened: as §1

[3] = 96-well microtiter plate HTS diet assay

Row | Structure (SMILES) | BAW HTS ([1]; 96-well HTS diet assay) | BAW HTS [1, 3] | BAW 50 ug/cm2 [2] | pest or weed control at 12 µg/well, 12 µg/well [1] | pest or weed control at 50 µg/cm2, 50 µg/cm2 [2] | BAW HTS ([1]; 96-well HTS diet bioassay)
1 | COC1C(C)OC(ON=Cc2ccc(-c3cncc(-c4ccc(OC(F)(F)F)cc4)c3)cc2)C(OC)C1OC (centres unmarked) [Compound 135] | B (either (1) the compound was tested and less than 50 percent mortality was observed or (2) the compound was not tested) | B (either (1) the compound was tested and less than 50 percent mortality was observed or (2) the compound was not tested) | A (the compound was tested and at least 50 percent mortality was observed) |  |  | 
2 | CCO[C@@H]1[C@@H](OC)[C@H](C)O[C@@H](OC(=O)N(C(C)=O)c2ccc(-c3ncn(-c4ccc(OC(F)(F)C(F)(F)F)cc4)n3)cc2)[C@@H]1OC [Compound 258, acetyl {4-[1-(4-pentafluoroethoxyphenyl)-1H-[1,2,4]triazol-3-yl]-phenyl}-carbamic acid (2S,3R,4R,5S,6S)-4-ethoxy-3,5-dimethoxy-6-methyl-tetrahydropyran-2-yl ester] |  | A (the compound was tested and at least 50 percent mortality was observed) | A (the compound was tested and at least 50 percent mortality was observed) | > 50% | > 50% | 
3 | CCO[C@@H]1[C@@H](OC)[C@H](C)O[C@@H](OC(=O)Nc2ccc(-c3nn(-c4ccc(C(F)(F)F)cc4)c(=O)o3)cc2)[C@@H]1OC [Compound 249] | B (either (1) the compound was tested and less than 50 percent mortality was observed or (2) the compound was not tested) | B (either (1) the compound was tested and less than 50 percent mortality was observed or (2) the compound was not tested) | B (either (1) the compound was tested and less than 50 percent mortality was observed or (2) the compound was not tested) |  |  | 
4 | COC1C(C)OC(ON=Cc2ccc(-c3ccn(-c4ccc(SC(F)(F)F)cc4)n3)cc2)C(OC)C1OC (centres unmarked) [Compound 6] |  | B (either (1) the compound was tested and less than 50 percent mortality was observed or (2) the compound was not tested) | A (the compound was tested and at least 50 percent mortality was observed) |  |  | B (either (1) the compound was tested and less than 50 percent mortality was observed or (2) the compound was not tested)
5 | COC1C(C)OC(ON=Cc2ccc(-c3nc(-c4ccc(C(F)(F)F)cc4)n[nH]3)cc2)C(OC)C1OC (centres unmarked) [Compound 95] |  | B (either (1) the compound was tested and less than 50 percent mortality was observed or (2) the compound was not tested) | A (the compound was tested and at least 50 percent mortality was observed) |  |  | B (either (1) the compound was tested and less than 50 percent mortality was observed or (2) the compound was not tested)
6 | COC1C(C)OC(ON=Cc2ccc(-c3ncc(-c4ccc(OC(F)(F)F)cc4)cn3)cc2)C(OC)C1OC (centres unmarked) [Compound 136] | B (either (1) the compound was tested and less than 50 percent mortality was observed or (2) the compound was not tested) | B (either (1) the compound was tested and less than 50 percent mortality was observed or (2) the compound was not tested) | A (the compound was tested and at least 50 percent mortality was observed) |  |  | 
7 | CCCOC1C(OC)C(C)OC(ON=Cc2ccc(-c3ncn(-c4ccc(C(F)(F)C(F)(F)F)cc4)n3)cc2)C1OC (centres unmarked) [Compound 108] |  | B (either (1) the compound was tested and less than 50 percent mortality was observed or (2) the compound was not tested) | A (the compound was tested and at least 50 percent mortality was observed) |  |  | B (either (1) the compound was tested and less than 50 percent mortality was observed or (2) the compound was not tested)
8 | CCOC1C(OC)C(C)OC(ON=Cc2ccc(-c3ncc(-c4ccc(C(F)(F)F)cc4)cn3)cc2)C1OC (centres unmarked) [Compound 151] | B (either (1) the compound was tested and less than 50 percent mortality was observed or (2) the compound was not tested) | B (either (1) the compound was tested and less than 50 percent mortality was observed or (2) the compound was not tested) | A (the compound was tested and at least 50 percent mortality was observed) |  |  | 
9 | COC1C(C)OC(ON=Cc2ccc(-n3cnc(-c4ccc(C(F)(F)F)cc4)n3)cc2)C(OC)C1OC (centres unmarked) [Compound 72] |  | A (the compound was tested and at least 50 percent mortality was observed) | A (the compound was tested and at least 50 percent mortality was observed) |  |  | A (the compound was tested and at least 50 percent mortality was observed)
10 | COC1C(C)OC(ON=Cc2c(F)ccc(-c3cn(-c4ccc(OC(F)(F)F)cc4)cn3)c2F)C(OC)C1OC (centres unmarked) [Compound 21] |  | A (the compound was tested and at least 50 percent mortality was observed) | B (either (1) the compound was tested and less than 50 percent mortality was observed or (2) the compound was not tested) |  |  | A (the compound was tested and at least 50 percent mortality was observed)
11 | CCO[C@@H]1[C@@H](OC)[C@H](C)O[C@@H](OC(=O)Nc2ccc(N3CC(=O)N(c4ccc(OC(F)(F)F)cc4)CC3=O)cc2)[C@@H]1OC [Compound 242] | B (either (1) the compound was tested and less than 50 percent mortality was observed or (2) the compound was not tested) | B (either (1) the compound was tested and less than 50 percent mortality was observed or (2) the compound was not tested) | A (the compound was tested and at least 50 percent mortality was observed) |  |  | 
12 | CCCCO[C@@H]1[C@@H](OC)[C@H](C)O[C@@H](OC(=O)Nc2ccc(-n3cnc(-c4ccc(C)cc4)n3)cc2)[C@@H]1OC [Compound 197] | A (the compound was tested and at least 50 percent mortality was observed) | A (the compound was tested and at least 50 percent mortality was observed) | A (the compound was tested and at least 50 percent mortality was observed) |  |  | 
13 | COC1C(C)OC(ON=Cc2ccc(C3=NN(c4ccc(OC(F)(F)F)cc4)C(C(=O)OCC(C)C)C3)cc2)C(OC)C1OC (mixture of isomers) [Compound 14] |  | B (either (1) the compound was tested and less than 50 percent mortality was observed or (2) the compound was not tested) | B (either (1) the compound was tested and less than 50 percent mortality was observed or (2) the compound was not tested) |  |  | B (either (1) the compound was tested and less than 50 percent mortality was observed or (2) the compound was not tested)
14 | CCO[C@@H]1[C@@H](OC)[C@H](C)O[C@@H](OC(=O)N(COC)c2ccc(-c3ncn(-c4ccc(OC(F)(F)F)cc4)n3)cc2)[C@@H]1OC [Compound 254, methoxymethyl {4-[1-(4-trifluoromethoxyphenyl)-1H-[1,2,4]triazol-3-yl]-phenyl}-carbamic acid (2S,3R,4R,5S,6S)-4-ethoxy-3,5-dimethoxy-6-methyl-tetrahydropyran-2-yl ester] |  | A (the compound was tested and at least 50 percent mortality was observed) | A (the compound was tested and at least 50 percent mortality was observed) | > 50% | > 50% | 
